According to ChEMBL document CHEMBL3046161, “Synthesis of potential antitubercular and antimicrobial s-triazine-based scaffolds via Suzuki cross-coupling reaction” (2013):
≈ marks a conversion by molar mass, not a printed value.

Experiments:
Assay type in all cases: functional
[1] = test system: Mycobacterium tuberculosis; test: Antimycobacterial activity against Mycobacterium tuberculosis H37Rv assessed as growth inhibition at MIC after 12 to 28 days by Lowenstein and Jensen agar dilution method
Aspergillus clavatus [2] = test: Antifungal activity against Aspergillus clavatus MTCC 1323 assessed as growth inhibition at 3.12 to 50 ug/mL after 24 hr by agar disk diffusion method
[3] = test system: Mycobacterium tuberculosis; test: Antimycobacterial activity against Mycobacterium tuberculosis H37Rv assessed as growth inhibition after 12 to 28 days by Lowenstein and Jensen agar dilution method
Aspergillus niger [4] = test: Antifungal activity against Aspergillus niger MTCC 282 assessed as growth inhibition at 3.12 to 50 ug/mL after 24 hr by agar disk diffusion method
Klebsiella pneumoniae [5] = test: Antibacterial activity against Klebsiella pneumoniae MTCC 109 assessed as growth inhibition after 24 hr by agar streak dilution method; details: MTCC 109, 24 h
Proteus vulgaris [6] = test: Antibacterial activity against Proteus vulgaris MTCC 1771 assessed as growth inhibition at 3.12 to 50 ug/mL after 24 hr by agar disk diffusion method
Staphylococcus aureus [7] = test: Antibacterial activity against Staphylococcus aureus MTCC 96 assessed as growth inhibition at 3.12 to 50 ug/mL after 24 hr by agar disk diffusion method
Escherichia coli [8] = test: Antibacterial activity against Escherichia coli MTCC 739 assessed as growth inhibition at 3.12 to 50 ug/mL after 24 hr by agar disk diffusion method
Bacillus cereus [9] = test: Antibacterial activity against Bacillus cereus MTCC 430 assessed as growth inhibition after 24 hr by agar streak dilution method; details: MTCC 430, 24 h
Aspergillus fumigatus [10] = test: Antifungal activity against Aspergillus fumigatus MTCC 343 assessed as growth inhibition after 48 hr by agar streak dilution method; details: MTCC 343, 48 h
Aspergillus fumigatus [11] = test: Antifungal activity against Aspergillus fumigatus MTCC 343 assessed as growth inhibition at 3.12 to 50 ug/mL after 24 hr by agar disk diffusion method
[12] = test system: Mycobacterium tuberculosis; test: Antimycobacterial activity against Mycobacterium tuberculosis H37Rv assessed as growth inhibition measured within 10 days by BACTEC MGIT method; details: 240 h
Salmonella typhi [13] = test: Antibacterial activity against Salmonella enterica subsp. enterica serovar Typhi MTCC 733 assessed as growth inhibition at 3.12 to 50 ug/mL after 24 hr by agar disk diffusion method
Proteus vulgaris [14] = test: Antibacterial activity against Proteus vulgaris MTCC 1771 assessed as growth inhibition after 24 hr by agar streak dilution method; details: MTCC 1771, 24 h
Candida albicans [15] = test: Antifungal activity against Candida albicans MTCC 183 assessed as growth inhibition after 48 hr by agar streak dilution method; details: MTCC 183, 48 h
Klebsiella pneumoniae [16] = test: Antibacterial activity against Klebsiella pneumoniae MTCC 109 assessed as growth inhibition at 3.12 to 50 ug/mL after 24 hr by agar disk diffusion method
Shigella flexneri [17] = test: Antibacterial activity against Shigella flexneri MTCC 1457 assessed as growth inhibition after 24 hr by agar streak dilution method; details: MTCC 1457, 24 h
Escherichia coli [18] = test: Antibacterial activity against Escherichia coli MTCC 739 assessed as growth inhibition after 24 hr by agar streak dilution method; details: MTCC 739, 24 h
Candida albicans [19] = test: Antifungal activity against Candida albicans MTCC 183 assessed as growth inhibition at 3.12 to 50 ug/mL after 24 hr by agar disk diffusion method
Aspergillus clavatus [20] = test: Antifungal activity against Aspergillus clavatus MTCC 1323 assessed as growth inhibition after 48 hr by agar streak dilution method; details: MTCC 1323, 48 h
Pseudomonas aeruginosa [21] = test: Antibacterial activity against Pseudomonas aeruginosa MTCC 741 assessed as growth inhibition at 3.12 to 50 ug/mL after 24 hr by agar disk diffusion method
Salmonella typhi [22] = test: Antibacterial activity against Salmonella enterica subsp. enterica serovar Typhi MTCC 733 assessed as growth inhibition after 24 hr by agar streak dilution method; details: MTCC 733, 24 h
Shigella flexneri [23] = test: Antibacterial activity against Shigella flexneri MTCC 1457 assessed as growth inhibition at 3.12 to 50 ug/mL after 24 hr by agar disk diffusion method
Bacillus cereus [24] = test: Antibacterial activity against Bacillus cereus MTCC 430 assessed as growth inhibition at 3.12 to 50 ug/mL after 24 hr by agar disk diffusion method
Aspergillus niger [25] = test: Antifungal activity against Aspergillus niger MTCC 282 assessed as growth inhibition after 48 hr by agar streak dilution method; details: MTCC 282, 48 h
Pseudomonas aeruginosa [26] = test: Antibacterial activity against Pseudomonas aeruginosa MTCC 741 assessed as growth inhibition after 24 hr by agar streak dilution method; details: MTCC 741, 24 h
Staphylococcus aureus [27] = test: Antibacterial activity against Staphylococcus aureus MTCC 96 assessed as growth inhibition after 24 hr by agar streak dilution method; details: MTCC 96, 24 h

| Compound | growth inhibition (GI) [1] [%] | inhibition zone (IZ) (Aspergillus clavatus [2]) [mm] | MIC [3] [µg/mL] | inhibition zone (IZ) (Aspergillus niger [4]) [mm] | MIC (Klebsiella pneumoniae [5]) [µg/mL] | inhibition zone (IZ) (Proteus vulgaris [6]) [mm] | inhibition zone (IZ) (Staphylococcus aureus [7]) [mm] | inhibition zone (IZ) (Escherichia coli [8]) [mm] | MIC (Bacillus cereus [9]) [µg/mL] | MIC (Aspergillus fumigatus [10]) [µg/mL] | inhibition zone (IZ) (Aspergillus fumigatus [11]) [mm] | MIC [12] [µg/mL] | inhibition zone (IZ) (Salmonella typhi [13]) [mm] | MIC (Proteus vulgaris [14]) [µg/mL] | MIC (Candida albicans [15]) [µg/mL] | inhibition zone (IZ) (Klebsiella pneumoniae [16]) [mm] | MIC (Shigella flexneri [17]) [µg/mL] | MIC (Escherichia coli [18]) [µg/mL] | inhibition zone (IZ) (Candida albicans [19]) [mm] | MIC (Aspergillus clavatus [20]) [µg/mL] | other results |
| --- | --- | --- | --- | --- | --- | --- | --- | --- | --- | --- | --- | --- | --- | --- | --- | --- | --- | --- | --- | --- | --- |
| CC(=O)Nc1ccc(NC(=O)CNc2ccc(-c3nc(N4CC(C)CC(C)C4)nc(N4CC(C)CC(C)C4)n3)cc2)cc1 (stereo not given) | 95 | 19 | 62.5 (≈ 107 µM) | 22 | 50 (≈ 85.5 µM) | 27 | <10 | 20 | 50 (≈ 85.5 µM) | 50 (≈ 85.5 µM) | 12 | > 6.25 | <10 | 6.25 (≈ 10.7 µM) | 50 (≈ 85.5 µM) | <10 | 50 (≈ 85.5 µM) | 50 (≈ 85.5 µM) | 17 | 50 (≈ 85.5 µM) | inhibition zone (IZ) (Pseudomonas aeruginosa [21]): 19 mm; MIC (Salmonella typhi [22]): 50 µg/mL (≈ 85.5 µM); inhibition zone (IZ) (Shigella flexneri [23]): 16 mm; inhibition zone (IZ) (Bacillus cereus [24]): 12 mm; MIC (Aspergillus niger [25]): 12.5 µg/mL (≈ 21.4 µM); MIC (Pseudomonas aeruginosa [26]): 50 µg/mL (≈ 85.5 µM); MIC (Staphylococcus aureus [27]): 50 µg/mL (≈ 85.5 µM) |
| CC1CC(C)CN(c2nc(-c3ccc(NCC(=O)Nc4nc5ccccc5s4)cc3)nc(N3CC(C)CC(C)C3)n2)C1 (stereo not given) | 94 | <10 | 500 (≈ 855 µM) | <10 | 50 (≈ 85.5 µM) | 18 | 16 | 14 | 50 (≈ 85.5 µM) | > 50 | <10 | > 6.25 | 12 | 50 (≈ 85.5 µM) | > 50 | <10 | 50 (≈ 85.5 µM) | 50 (≈ 85.5 µM) | <10 | > 50 | inhibition zone (IZ) (Pseudomonas aeruginosa [21]): 16 mm; MIC (Salmonella typhi [22]): 50 µg/mL (≈ 85.5 µM); inhibition zone (IZ) (Shigella flexneri [23]): <10 mm; inhibition zone (IZ) (Bacillus cereus [24]): 14 mm; MIC (Aspergillus niger [25]): 50 µg/mL (≈ 85.5 µM); MIC (Pseudomonas aeruginosa [26]): 50 µg/mL (≈ 85.5 µM); MIC (Staphylococcus aureus [27]): 50 µg/mL (≈ 85.5 µM) |
| CC1CC(C)CN(c2nc(-c3ccc(NCC(=O)Nc4nc5ccc(Cl)cc5s4)cc3)nc(N3CC(C)CC(C)C3)n2)C1 (stereo not given) | 97 | <10 | 62.5 (≈ 101 µM) | 17 | 50 (≈ 80.7 µM) | 20 | 22 | 21 | 6.25 (≈ 10.1 µM) | > 50 | <10 | > 6.25 | 22 | 50 (≈ 80.7 µM) | 50 (≈ 80.7 µM) | 23 | 6.25 (≈ 10.1 µM) | 25 (≈ 40.4 µM) | 12 | > 50 | inhibition zone (IZ) (Pseudomonas aeruginosa [21]): 26 mm; MIC (Salmonella typhi [22]): 25 µg/mL (≈ 40.4 µM); inhibition zone (IZ) (Shigella flexneri [23]): 26 mm; inhibition zone (IZ) (Bacillus cereus [24]): 27 mm; MIC (Aspergillus niger [25]): 50 µg/mL (≈ 80.7 µM); MIC (Pseudomonas aeruginosa [26]): 25 µg/mL (≈ 40.4 µM); MIC (Staphylococcus aureus [27]): 6.25 µg/mL (≈ 10.1 µM) |
| CC1CC(C)CN(c2nc(-c3ccc(NCC(=O)Nc4nc5ccc(Br)cc5s4)cc3)nc(N3CC(C)CC(C)C3)n2)C1 (stereo not given) | 99 | 26 | 12.5 (≈ 18.8 µM) | 19 | 50 (≈ 75.3 µM) | 23 | 25 | 23 | 6.25 (≈ 9.42 µM) | 50 (≈ 75.3 µM) | 19 | > 6.25 | 24 | 25 (≈ 37.7 µM) | 50 (≈ 75.3 µM) | 11 | 12.5 (≈ 18.8 µM) | 12.5 (≈ 18.8 µM) | 18 | 50 (≈ 75.3 µM) | inhibition zone (IZ) (Pseudomonas aeruginosa [21]): 25 mm; MIC (Salmonella typhi [22]): 6.25 µg/mL (≈ 9.42 µM); inhibition zone (IZ) (Shigella flexneri [23]): 25 mm; inhibition zone (IZ) (Bacillus cereus [24]): 26 mm; MIC (Aspergillus niger [25]): 50 µg/mL (≈ 75.3 µM); MIC (Pseudomonas aeruginosa [26]): 25 µg/mL (≈ 37.7 µM); MIC (Staphylococcus aureus [27]): 1.56 µg/mL (≈ 2.35 µM) |
| CC1CC(C)CN(c2nc(-c3ccc(NCC(=O)Nc4nc5ccc(I)cc5s4)cc3)nc(N3CC(C)CC(C)C3)n2)C1 (stereo not given) | 96 | 11 | 200 (≈ 281 µM) | <10 | 50 (≈ 70.4 µM) | 26 | 21 | 18 | 25 (≈ 35.2 µM) | > 50 | <10 | > 6.25 | 17 | 12.5 (≈ 17.6 µM) | 50 (≈ 70.4 µM) | 12 | 25 (≈ 35.2 µM) | 50 (≈ 70.4 µM) | 20 | 50 (≈ 70.4 µM) | inhibition zone (IZ) (Pseudomonas aeruginosa [21]): 16 mm; MIC (Salmonella typhi [22]): 50 µg/mL (≈ 70.4 µM); inhibition zone (IZ) (Shigella flexneri [23]): 23 mm; inhibition zone (IZ) (Bacillus cereus [24]): 24 mm; MIC (Aspergillus niger [25]): 50 µg/mL (≈ 70.4 µM); MIC (Pseudomonas aeruginosa [26]): 50 µg/mL (≈ 70.4 µM); MIC (Staphylococcus aureus [27]): 12.5 µg/mL (≈ 17.6 µM) |
